Experimental data from patent US6028110A, “Succinyl hydroxamic acid, N-formyl-N-hydroxy amino carboxylic acid and succinic acid amide derivatives as metalloprotease inhibitors” (British Biotech Pharmaceuticals Ltd., priority 1994, dated 2000).
Where a name gives a salt, the structure may show the parent alone.

Columns and labels:
[1] = tested on: collagenase; assay: Inhibition of collagenase (acetylated 14C collagen, Cawston and Barrett); format: biochemical; settings: 37°, 16 hours, pH 7.5
Procedure: The collagen was acetylated ^14 C collagen prepared by the method of Cawston and Murphy, (Methods in Enzymology, 80, 711, 1981), hereby incorporated by reference. The samples were centrifuged to sediment undigested collagen, and an aliquot of the radioactive supernatant removed for assay on a scintillation counter as a measure of hydrolysis. […] For weak inhibitors, the percentage inhibition (% I) at a concentration of 100 μM is given.

[2] = tested on: human PUMP-1 (matrilysin); assay: Inhibition of human PUMP-1 (matrilysin) ([14C]-casein degradation assay); format: biochemical; settings: 16 hours at 37° C, recombinant human PUMP-1 expressed in CHO cells
Procedure: Recombinant human PUMP-1 was expressed in CHO cells and purified by heparin-agarose and Procion Red chromatography. A [^14 C]-casein degradation assay was used to measure PUMP-1 activity. […] The incubation was terminated by addition of trichloroacetic acid (final concentration 10%) and the substrate was separated from the TCA-soluble degradation products by centrifugation at 10,000 g for 15 minutes. […] The inhibitors were dissolved and diluted in DMSO. […] For weak inhibitors, the percentage inhibition (% I) at a concentration of 100 μM is given.

SMILES | Collagenase % Inhibition @ 100 μM [1] | PUMP % Inhibition @ 100 μM [2]
CCCCCCCCCCCC[C@H](CC(=O)O)C(=O)N[C@@H](Cc1ccccc1)C(=O)NC [Comparator Example A, 3R-(1S-Methylcarbamoyl-2-phenyl-ethylcarbamoyl)-pentadecanoic acid] | 30 % I | 10 % I
CCCCCCCCCCCCCCCC[C@H](CC(=O)O)C(=O)N[C@@H](Cc1ccccc1)C(=O)NC [Example 1, 3R-(1S-Methylcarbamoyl-2-phenyl-ethylcarbamoyl)nonadecanoic acid (dicyclohexylamine salt)] | 0 % I | 20 % I
